The values that follow are results of earlier work, collected in patent publication US20090087484A1, “Formulation and dosage form for increasing oral bioavailability of hydrophilic macromolecules” (priority 2007, published 2009).

Where two headings read alike, the source gives them in different places.

For data set [1] the following is noted: in vivo.

As for `NC(=O)CC[C@@H]1NC(=O)[C@H](Cc2ccccc2)NC(=O)[C@H](Cc2ccc(O)cc2)NC(=O)CCSSC[C@@H](C(=O)N2CCC[C@H]2C(=O)N[C@H](CCCN=C(N)N)C(=O)NCC(N)=O)NC(=O)[C@H](CC(N)=O)NC1=O` [dDAVP, Desmopressin], the oral bioavailability entry in data set [1] is “about 0.15%”.
For the compound pentosan polysulfate sodium [PPS], the “elimination half-life in urine” value (after oral administration) is 4.8 h. Further, the oral bioavailability entry (in humans) was “approximately 3%”. The elimination half-life (mean value, following IV injection) was 24 h.
